# pEC50: −log10 of the molar value.
# Tests used:
# [1] = system: TNFα-induced cell death in WEHI-13VAR fibroblasts (recombinant human TNFα); type: cell-based
# Experimental: WEHI-13VAR fibroblasts were purchased from American Type Culture Collection (ATCC). For maintenance, cells were grown in full medium as RPMI-1640 supplemented with 10% FBS and 1% Abs. For toxicity assay, cells were seeded in a 96-well plate at a density of 5×10^3 cells/well in 100 μL of RPMI-1640/1% Abs supplemented with 10% or 5% FBS and allowed to grow overnight. Varying concentrations of recombinant human TNFα (0-250 ng/mL) or commercial mouse TNFα were (0-100 pg/mL) were incubated with 10 μM peptide and actinomycin D (1 μg/mL) in 100 μL of corresponding growth medium for 1 h at 37° C. Next, the medium in the 96-well plate was removed and replaced with the above fresh mixture and the cells were incubated overnight. Next day, 10 μL of the 3-(4, 5-dimethylthiazolyl-2)-2, 5-diphenyltetrazolium bromide (MTT, final concentration 0.5 mg/ml) was added to each well and incubated at 37° C. for 3 h, following by the addition of 100 μL of the MTT solubilization solution. The plate was kept in the incubator overnight to let the formazan crystals to completely dissolve, and the absorbance at 570 nm was measured on a TECAN plate reader. The LD50 was obtained as plotting the viability as a function of the TNFα concentration.
# One of the biological functions of TNFα is to induce death signaling. Inhibitors against the TNFα-TNFR interaction are expected to protect cells against TNFα induced cell death. Therefore, anticachexin C1, C1-74, and C1-74-2 through C1-74-5 were compared for their ability to protect cultured WEHI-13 VAR fibroblasts, which are highly sensitive to TNFα in the presence of actinomycin-D, against TNFα-induced cell death (Khabar, K. S. A.; et al., “WEHI-13VAR: A Stable and Sensitive Variant of WEHI 164 Clone 13 Fibrosarcoma for Tumor Necrosis Factor Bioassay.” Immunol. Lett. 1995, 46:107-110). The cells were treated with a fixed concentration of peptides (10 μM) and varying concentrations of TNFα (0-1 μM), and the fraction of live cells was quantitated by the 3-(4,5-dimethylthiazol-2-yl)-2,5-diphenyltetrazolium bromide (MTT) assay. […] The MTT assay was also conducted at a fixed concentration of TNFα (0.4 ng/mL) but varying concentrations of peptides (0-10 μM).
# [2] = biological target: T1, TNFα (infliximab binding) (Homo sapiens, UniProt P01375); test: Binding of infliximab-HRP conjugate to immobilized TNFα; settings: 0, 2 or 6 μM peptide
# T1 construct: ybbR tag (13 aa) (N); made in house; host or cells: Escherichia coli
# Experimental: FIG. 6A is a graph showing the competition for binding to TNFα (2 μM) between C1-74-2 (0-15 μM) and C1-NNNK(FITC) (100 nM) as monitored by FA. FIG. 6B is a graph showing binding of infliximab-HRP conjugate to immobilized TNFα in the absence and presence of C1-74-2 (0, 2, or 6 μM).
# The four peptides were tested for inhibition of the TNFα-TNFR1 interaction by using the ELISA assay.
# [3] = system: TNFα-induced JNK phosphorylation; test: Immunoblot of TNFα-induced JNK phosphorylation in WEHI-13VAR cells; type: cell-based; settings: TNFα with increasing peptide concentrations (0-20 μM); total JNK unchanged
# Experimental: WEHI-13VAR cells were cultured in full growth media (RPMI, 5% FBS, 1% Pen/Strep) in 12-well plates to reach 80% confluence. TNFα (5 ng/mL final concentration) and varying concentrations of peptide inhibitor (0-6 μM) were pre-incubated in 0.5 mL of the growth medium for 30 min in the CO2 incubator. The mixture was then used to treat the cells at 37° C. and in the presence of 5% CO2. After 1.5 h, the solution was removed and the cells were washed with cold DPBS twice. The cells were lysed in 50 μL of lysis buffer (50 mM Tris, pH 7.4, 150 mM NaCl, 1% NP-40, and 5% glycerol) containing a protease inhibitor cocktail (Complete mini, Roche, product number 04693159001) and a phosphatase inhibitor cocktail (PhosSTOP, Roche, product number 04906845001). After incubation on ice for 30 min, the cell lysate was centrifuged at 15,000 rpm for 10 min in a microcentrifuge. An equal volume of 2×SDS-loading buffer was added to the supernatant. The total cellular proteins were separated by SDS-PAGE and transferred electrophoretically to a nitrocellulose membrane, which was subsequently immunoblotted using anti-JNK and anti-p-JNK Thr183/Tyr185 antibodies (both from Santa Cruz Biotechnology). The same samples were also separated on a different SDS-PAGE gel and stained by Coomassie brilliant blue to check the sample loading in all lanes. […]
# [4] = system: TNFα-induced activation of NF-κB; test: NF-κB luciferase reporter assay in NF-κB reporter (Luc)-HEK293 cells; type: cell-based; settings: 6 μM peptide, 5 ng/mL TNFα
# Experimental: NF-κB reporter (Luc)-HEK293 cells 30 (BPS Bioscience, San Diego, Calif.) were seeded at a density of 5,000 cells per well in Greiner white 96-well cell culture microplates in 50 μL of growth medium (DMEM+10% FBS+1% P/S). Cells were incubated overnight at 37° C. in the presence of 5% CO2. TNFα (5 ng/mL) and different concentrations of compound C1-74-2 (0-6 μM) were incubated for 1 h in 5 μL of growth medium (DMEM+5% FBS+1% P/S) at 37° C. in the presence of 5% CO2. The growth medium in the plate was replaced with 50 μL of fresh medium (DMEM+5% FBS+1% P/S). The pre-incubated TNFα and peptide mixture (5 μL) was added into each well, with 5 μL of growth medium only added as the control. The cells were incubated at 37° C. with 5% CO2 for 2 h. Fifty μL of ONE-Step™ Luciferase Assay reagent (BPS Bioscience, San Diego, Calif.) was added into each well. The whole plate was incubated at room temperature for 5 min and the luminescence generated was measured on a Tecan M1000 Pro microplate reader.
# WEHI-13VAR cells were treated with TNFα in the presence of increasing concentrations of C1-74-2 (0-20 μM) and the cell lysates were probed with antibodies specific for phosphorylated JNK (p-JNK) as well as total JNK. […]
# T1 sequence (P01375 77-233 limits assumed): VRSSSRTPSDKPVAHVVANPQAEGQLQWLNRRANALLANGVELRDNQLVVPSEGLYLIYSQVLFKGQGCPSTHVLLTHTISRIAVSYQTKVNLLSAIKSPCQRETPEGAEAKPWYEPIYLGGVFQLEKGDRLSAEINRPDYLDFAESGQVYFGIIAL
structure (smiles),measurement,setting,value
CC(=O)[C@@H]1CCCN(C(=O)[C@@H](Cc2c[nH]cn2)NC(=O)C(N)C(C)C)C1 (some centres unmarked) [Compound C1-74-2],pEC50,[1],~7.30
same,Concentration giving almost complete protection,[1]; 0.4 ng/mL TNFα,≥ 100 nM
same,Inhibition of infliximab binding to surface-immobilized TNFα,[2],inhibited the binding of anti-TNFα antibody infliximab to a surface-immobilized TNFα in a concentration-dependent manner
same,p-JNK level,[3],decreased with the C1-74-2 concentration
same,Reduction of TNFα-induced luciferase activity,[4],~50%

# — patent US10913773B2, “Bicyclic peptidyl inhibitor of tumor necrosis factor-alpha” (Ohio State Innovation Foundation, priority 2016, dated 2021)
